Source: ChEMBL document CHEMBL1140860, “Synthesis and evaluation of dihydroartemisinin and dihydroartemisitene acetal dimers showing anticancer and antiprotozoal activity” (Bioorg Med Chem, 2009)

Key:
[1] = tested on: 786-0; experiment: Growth inhibition of human 786-0 cells after 48 hrs by sulforhodamine B assay; assay type: functional; details: 786-0, 48 h
[2] = tested on: HOP-62; experiment: Growth inhibition of human HOP62 cells after 48 hrs by sulforhodamine B assay; assay type: functional; details: HOP-62, 48 h
[3] = tested on: HOP-92; experiment: Growth inhibition of human HOP92 cells after 48 hrs by sulforhodamine B assay; assay type: functional; details: HOP-92, 48 h
[4] = tested on: MOLT-4; experiment: Growth inhibition of human MOLT4 cells after 48 hrs by sulforhodamine B assay; assay type: functional; details: MOLT-4, 48 h
[5] = tested on: HT-29; experiment: Growth inhibition of human HT-29 cells after 48 hrs by sulforhodamine B assay; assay type: functional; details: HT-29, 48 h
[6] = tested on: SF-295; experiment: Growth inhibition of human SF295 cells after 48 hrs by sulforhodamine B assay; assay type: functional; details: SF-295, 48 h
[7] = tested on: Malme-3M; experiment: Growth inhibition of human MALME-3M cells after 48 hrs by sulforhodamine B assay; assay type: functional
[8] = tested on: SR; experiment: Growth inhibition of human SR cells after 48 hrs by sulforhodamine B assay; assay type: functional
[9] = tested on: SNB-19; experiment: Growth inhibition of human SNB19 cells after 48 hrs by sulforhodamine B assay; assay type: functional; details: SNB-19, 48 h
[10] = tested on: A498; experiment: Growth inhibition of human A498 cells after 48 hrs by sulforhodamine B assay; assay type: functional; details: A498, 48 h
[11] = Cytotoxicity against african green monkey Vero cells after 48 hrs by neutral red assay; assay type: cell-based; details: chlorocebus sabaeus, read-out: TC50
[12] = tested on: CCRF-CEM; experiment: Growth inhibition of human CCRF-CEM cells after 48 hrs by sulforhodamine B assay; assay type: functional
[13] = tested on: BT-549; experiment: Growth inhibition of human BT549 cells after 48 hrs by sulforhodamine B assay; assay type: functional; details: BT-549, 48 h
[14] = tested on: SF-539; experiment: Growth inhibition of human SF539 cells after 48 hrs by sulforhodamine B assay; assay type: functional; details: SF-539, 48 h
[15] = Selectivity index, ratio of TC50 for african green monkey (Cercopithecus aethiops) Vero cells to IC50 for chloroquine-sensitive Plasmodium falciparum D6; assay type: toxicity, cell-based
[16] = tested on: SNB-75; experiment: Growth inhibition of human SNB75 cells after 48 hrs by sulforhodamine B assay; assay type: functional; details: SNB-75, 48 h
[17] = tested on: MDA-MB-435; experiment: Growth inhibition of human MDA-MB-435 cells after 48 hrs by sulforhodamine B assay; assay type: functional; details: MDA-MB-435, 48 h
[18] = tested on: NCI-H23; experiment: Growth inhibition of human NCI-H23 cells after 48 hrs by sulforhodamine B assay; assay type: functional; details: NCI-H23, 48 h
[19] = tested on: NCI/ADR-RES; experiment: Growth inhibition of human NCI/ADR-RES cells after 48 hrs by sulforhodamine B assay; assay type: functional
[20] = tested on: M14; experiment: Growth inhibition of human M14 cells after 48 hrs by sulforhodamine B assay; assay type: functional; details: M14, 48 h
[21] = tested on: UO-31; experiment: Growth inhibition of human UO31 cells after 48 hrs by sulforhodamine B assay; assay type: functional; details: UO-31, 48 h
[22] = tested on: TK-10; experiment: Growth inhibition of human TK10 cells after 48 hrs by sulforhodamine B assay; assay type: functional; details: TK-10, 48 h
[23] = Selectivity index, ratio of TC50 for african green monkey (Cercopithecus aethiops) Vero cells to IC50 for chloroquine-resistant Plasmodium falciparum W2; assay type: toxicity, cell-based
[24] = tested on: K562; experiment: Growth inhibition of human K562 cells after 48 hrs by sulforhodamine B assay; assay type: functional; details: K562, 48 h
[25] = tested on: SF-268; experiment: Growth inhibition of human SF268 cells after 48 hrs by sulforhodamine B assay; assay type: functional; details: SF-268, 48 h
[26] = tested on: MDA-N; experiment: Growth inhibition of human MDA-N cells after 48 hrs by sulforhodamine B assay; assay type: functional
[27] = tested on: LOX IMVI; experiment: Growth inhibition of human LOXIMVI cells after 48 hrs by sulforhodamine B assay; assay type: functional
[28] = tested on: SK-MEL-2; experiment: Growth inhibition of human SK-MEL-2 cells after 48 hrs by sulforhodamine B assay; assay type: functional; details: SK-MEL-2, 48 h
[29] = tested on: HL-60; experiment: Growth inhibition of human HL-60(TB) cells after 48 hrs by sulforhodamine B assay; assay type: functional; details: HL-60, 48 h
[30] = tested on: UACC-257; experiment: Growth inhibition of human UACC257 cells after 48 hrs by sulforhodamine B assay; assay type: functional; details: UACC-257, 48 h
[31] = tested on: SK-MEL-5; experiment: Growth inhibition of human SK-MEL-5 cells after 48 hrs by sulforhodamine B assay; assay type: functional; details: SK-MEL-5, 48 h
[32] = tested on: MCF7; experiment: Growth inhibition of human MCF7 cells after 48 hrs by sulforhodamine B assay; assay type: functional; details: MCF7, 48 h
[33] = tested on: A549; experiment: Growth inhibition of human A549 cells after 48 hrs by sulforhodamine B assay; assay type: functional; details: A549, 48 h
[34] = tested on: UACC-62; experiment: Growth inhibition of human UACC62 cells after 48 hrs by sulforhodamine B assay; assay type: functional; details: UACC-62, 48 h
[35] = tested on: OVCAR-5; experiment: Growth inhibition of human OVCAR5 cells after 48 hrs by sulforhodamine B assay; assay type: functional; details: OVCAR-5, 48 h
[36] = tested on: SW-620; experiment: Growth inhibition of human SW620 cells after 48 hrs by sulforhodamine B assay; assay type: functional; details: SW-620, 48 h
[37] = tested on: HCT-15; experiment: Growth inhibition of human HCT15 cells after 48 hrs by sulforhodamine B assay; assay type: functional; details: HCT-15, 48 h
[38] = tested on: Plasmodium falciparum; experiment: Antimalarial activity after 72 hrs against chloroquine-resistant Plasmodium falciparum W2 infected erythrocytes by LDH assay; assay type: functional, organism-based; details: W2, 72 h
[39] = tested on: PC-3; experiment: Growth inhibition of human PC3 cells after 48 hrs by sulforhodamine B assay; assay type: functional; details: PC-3, 48 h
[40] = tested on: T47D; experiment: Growth inhibition of human T47D cells after 48 hrs by sulforhodamine B assay; assay type: functional
[41] = tested on: RXF 393; experiment: Growth inhibition of human RXF393 cells after 48 hrs by sulforhodamine B assay; assay type: functional; details: RXF 393, 48 h
[42] = tested on: U-251; experiment: Growth inhibition of human U251 cells after 48 hrs by sulforhodamine B assay; assay type: functional; details: U-251, 48 h
[43] = tested on: MDA-MB-231; experiment: Growth inhibition of human MDA-MB-231 cells after 48 hrs by sulforhodamine B assay; assay type: functional; details: MDA-MB-231, 48 h
[44] = tested on: OVCAR-4; experiment: Growth inhibition of human OVCAR4 cells after 48 hrs by sulforhodamine B assay; assay type: functional; details: OVCAR-4, 48 h
[45] = tested on: NCI-H460; experiment: Growth inhibition of human NCI-H460 cells after 48 hrs by sulforhodamine B assay; assay type: functional; details: NCI-H460, 48 h
[46] = tested on: OVCAR-3; experiment: Growth inhibition of human OVCAR-3 cells after 48 hrs by sulforhodamine B assay; assay type: functional; details: OVCAR-3, 48 h
[47] = tested on: EKVX; experiment: Growth inhibition of human EKVX cells after 48 hrs by sulforhodamine B assay; assay type: functional
[48] = tested on: Plasmodium falciparum; experiment: Antimalarial activity after 72 hrs against chloroquine-sensitive Plasmodium falciparum D6 infected in erythrocytes by LDH assay; assay type: functional, organism-based; details: D6, 72 h
[49] = tested on: NCI-H226; experiment: Growth inhibition of human NCI-H226 cells after 48 hrs by sulforhodamine B assay; assay type: functional; details: NCI-H226, 48 h
[50] = tested on: KM12; experiment: Growth inhibition of human KM12 cells after 48 hrs by sulforhodamine B assay; assay type: functional; details: KM12, 48 h

Structure (SMILES): C[C@H]1[C@@H](O[C@H]2CC[C@H](O[C@H]3O[C@@H]4O[C@@]5(C)CC[C@H]6[C@H](C)CC[C@@H]([C@H]3C)[C@@]46OO5)CC2)O[C@@H]2O[C@@]3(C)CC[C@H]4[C@H](C)CC[C@@H]1[C@@]24OO3
- GI50 [1]: 0.027 µM
- GI50 [2]: 0.065 µM
- GI50 [3]: 0.021 µM
- GI50 [4]: 0.099 µM
- GI50 [5]: 0.011 µM
- GI50 [6]: 0.061 µM
- GI50 [7]: 0.071 µM
- GI50 [8]: 0.306 µM
- GI50 [9]: 0.372 µM
- GI50 [10]: 0.376 µM
- CC50 at 48 h [11]: > 7340 µM
- GI50 [12]: < 0.01 µM
- GI50 [13]: 0.021 µM
- GI50 [14]: 0.092 µM
- selectivity ratio [15]: 1360
- GI50 [16]: 0.202 µM
- GI50 [17]: 0.07 µM
- GI50 [18]: 0.043 µM
- GI50 [19]: 0.13 µM
- GI50 [20]: 0.061 µM
- GI50 [21]: 0.123 µM
- GI50 [22]: 0.119 µM
- selectivity ratio [23]: > 553
- GI50 [24]: 0.041 µM
- GI50 [25]: 0.108 µM
- GI50 [26]: 0.077 µM
- GI50 [27]: 0.013 µM
- GI50 [28]: 0.296 µM
- GI50 [29]: 0.032 µM
- GI50 [30]: 0.074 µM
- GI50 [31]: 0.049 µM
- GI50 [32]: 0.042 µM
- GI50 [33]: 0.0188 µM
- GI50 [34]: 0.045 µM
- GI50 [35]: 0.042 µM
- GI50 [36]: 0.024 µM
- GI50 [37]: < 0.01 µM
- IC50 [38]: 13.3 µM
- GI50 [39]: < 0.01 µM
- GI50 [40]: < 0.01 µM
- GI50 [41]: 0.294 µM
- GI50 [42]: 0.016 µM
- GI50 [43]: 0.52 µM
- GI50 [44]: 0.053 µM
- GI50 [45]: 0.028 µM
- GI50 [46]: 0.067 µM
- GI50 [47]: 0.028 µM
- IC50 [48]: 5.4 µM
- GI50 [49]: 0.025 µM
- GI50 [50]: 0.011 µM

Structure (SMILES): COCC(CO[C@H]1O[C@@H]2O[C@@]3(C)CC[C@H]4[C@H](C)CC[C@@H]([C@H]1C)[C@@]24OO3)O[C@H]1O[C@@H]2O[C@@]3(C)CC[C@H]4[C@H](C)CC[C@@H]([C@H]1C)[C@@]24OO3 (stereo not given in full)
- GI50 [1]: 0.185 µM
- GI50 [2]: 5.62 µM
- GI50 [3]: 0.071 µM
- GI50 [4]: 0.027 µM
- GI50 [5]: 0.019 µM
- GI50 [6]: 4.63 µM
- GI50 [7]: 8.13 µM
- GI50 [8]: 0.015 µM
- GI50 [9]: 0.249 µM
- GI50 [10]: 0.148 µM
- CC50 at 48 h [11]: > 745 µM
- GI50 [12]: 0.019 µM
- GI50 [13]: 7.52 µM
- GI50 [14]: 4.04 µM
- selectivity ratio [15]: > 43
- GI50 [16]: 22.6 µM
- GI50 [17]: 0.443 µM
- GI50 [18]: 0.081 µM
- GI50 [19]: 0.533 µM
- GI50 [20]: 0.049 µM
- GI50 [21]: 0.125 µM
- GI50 [22]: 0.058 µM
- selectivity ratio [23]: > 159
- GI50 [24]: 0.027 µM
- GI50 [25]: 6.29 µM
- GI50 [26]: 0.518 µM
- GI50 [27]: 0.023 µM
- GI50 [28]: 0.122 µM
- GI50 [29]: 0.028 µM
- GI50 [30]: 0.159 µM
- GI50 [31]: 0.496 µM
- GI50 [32]: 0.15 µM
- GI50 [33]: 0.061 µM
- GI50 [34]: 0.135 µM
- GI50 [35]: 0.104 µM
- GI50 [36]: 0.015 µM
- GI50 [37]: 0.017 µM
- IC50 [38]: 4.7 µM
- GI50 [39]: 0.019 µM
- GI50 [40]: 0.014 µM
- GI50 [41]: 2.97 µM
- GI50 [42]: 0.021 µM
- GI50 [43]: 13.1 µM
- GI50 [44]: 5.69 µM
- GI50 [45]: 0.081 µM
- GI50 [46]: 0.065 µM
- GI50 [47]: 0.689 µM
- IC50 [48]: 17.2 µM
- GI50 [49]: 0.087 µM
- GI50 [50]: 0.018 µM
